According to the OligoGym collection:
Bases are written 5' to 3'; sugars and linkages follow in the same order, as letters with counts (s phosphorothioate, o phosphodiester; PS: all linkages phosphorothioate). C may stand for cytosine or 5-methylcytosine; the collection does not tell. l = locked nucleic acid (LNA); d = 2'-deoxy (DNA)

Biological target: HIF1A
Assay: HeLa, 100 nM transfected, 24 h, mean of 3
Settings: ASO

| Sequence | caspase activation (% of PBS control) |
| --- | --- |
| GTTACTGCCTTCT (sugars ldldddddddldl, PS) | 108 |
| GTTACTGCCTTCT (sugars ldllddddddldl, PS) | 156 |
| GTTACTGCCTTCT (sugars lldlddddddldl, PS) | 105 |
| GTTACTGCCTTCTTAC (sugars l1 d1 l1 d8 l5, PS) | 298 |
| GTTACTGCCTTCTTAC (sugars l1 d1 l1 d9 l4, PS) | 147 |
| GTTACTGCCTTCTTAC (sugars l1 d1 l1 d10 l3, PS) | 109 |
| GTTACTGCCTTCTTAC (sugars l1 d1 l1 d11 l2, PS) | 97.8 |
| GTTACTGCCTTCTTAC (sugars l1 d1 l1 d12 l1, PS) | 103 |
| GTTACTGCCTTCTTAC (sugars l1 d1 l2 d7 l5, PS) | 361 |
| GTTACTGCCTTCTTAC (sugars l1 d1 l2 d8 l4, PS) | 200 |
| GTTACTGCCTTCTTAC (sugars l1 d1 l2 d9 l3, PS) | 141 |
| GTTACTGCCTTCTTAC (sugars l1 d1 l2 d10 l2, PS) | 130 |
| GTTACTGCCTTCTTAC (sugars l1 d1 l2 d11 l1, PS) | 156 |
| GTTACTGCCTTCTTAC (sugars l1 d1 l3 d6 l5, PS) | 616 |
| GTTACTGCCTTCTTAC (sugars l1 d1 l3 d7 l4, PS) | 465 |
| GTTACTGCCTTCTTAC (sugars l1 d1 l3 d8 l3, PS) | 463 |
| GTTACTGCCTTCTTAC (sugars l1 d1 l3 d9 l2, PS) | 292 |
| GTTACTGCCTTCTTAC (sugars l1 d1 l3 d10 l1, PS) | 323 |
| GTTACTGCCTTCTTAC (sugars l1 d2 l1 d7 l5, PS) | 268 |
| GTTACTGCCTTCTTAC (sugars l1 d2 l1 d8 l4, PS) | 175 |
| GTTACTGCCTTCTTAC (sugars l1 d2 l1 d9 l3, PS) | 131 |
| GTTACTGCCTTCTTAC (sugars l1 d2 l1 d10 l2, PS) | 93.2 |
| GTTACTGCCTTCTTAC (sugars l1 d2 l1 d11 l1, PS) | 91.7 |
| GTTACTGCCTTCTTAC (sugars l1 d2 l2 d6 l5, PS) | 485 |
| GTTACTGCCTTCTTAC (sugars l1 d2 l2 d7 l4, PS) | 361 |
| GTTACTGCCTTCTTAC (sugars l1 d2 l2 d8 l3, PS) | 248 |

| Sequence | caspase activation (% of PBS control) |
| --- | --- |
| GTTACTGCCTTCTTAC (sugars l1 d2 l2 d9 l2, PS) | 149 |
| GTTACTGCCTTCTTAC (sugars l1 d2 l2 d10 l1, PS) | 185 |
| GTTACTGCCTTCTTAC (sugars l1 d3 l1 d6 l5, PS) | 359 |
| GTTACTGCCTTCTTAC (sugars l1 d3 l1 d7 l4, PS) | 259 |
| GTTACTGCCTTCTTAC (sugars l1 d3 l1 d8 l3, PS) | 174 |
| GTTACTGCCTTCTTAC (sugars l1 d3 l1 d9 l2, PS) | 103 |
| GTTACTGCCTTCTTAC (sugars l1 d3 l1 d10 l1, PS) | 130 |
| GTTACTGCCTTCTTAC (sugars l1 d10 l1 d1 l3, PS) | 125 |
| GTTACTGCCTTCTTAC (sugars l1 d10 l1 d2 l2, PS) | 102 |
| GTTACTGCCTTCTTAC (sugars l1 d10 l1 d3 l1, PS) | 127 |
| GTTACTGCCTTCTTAC (sugars l1 d10 l2 d1 l2, PS) | 136 |
| GTTACTGCCTTCTTAC (sugars l1 d10 l2 d2 l1, PS) | 134 |
| GTTACTGCCTTCTTAC (sugars l1 d10 l3 d1 l1, PS) | 261 |
| GTTACTGCCTTCTTAC (sugars l1 d10 l5, PS) | 350 |
| GTTACTGCCTTCTTAC (sugars l1 d11 l1 d1 l2, PS) | 117 |
| GTTACTGCCTTCTTAC (sugars l1 d11 l1 d2 l1, PS) | 115 |
| GTTACTGCCTTCTTAC (sugars l1 d11 l2 d1 l1, PS) | 137 |
| GTTACTGCCTTCTTAC (sugars l1 d11 l4, PS) | 125 |
| GTTACTGCCTTCTTAC (sugars l1 d12 l1 d1 l1, PS) | 103 |
| GTTACTGCCTTCTTAC (sugars l1 d12 l3, PS) | 100 |
| GTTACTGCCTTCTTAC (sugars l1 d13 l2, PS) | 87.3 |
| GTTACTGCCTTCTTAC (sugars l1 d14 l1, PS) | 102 |
| GTTACTGCCTTCTTAC (sugars l2 d1 l1 d7 l5, PS) | 335 |
| GTTACTGCCTTCTTAC (sugars l2 d1 l1 d8 l4, PS) | 194 |
| GTTACTGCCTTCTTAC (sugars l2 d1 l1 d9 l3, PS) | 130 |
| GTTACTGCCTTCTTAC (sugars l2 d1 l1 d10 l2, PS) | 97.3 |
